By IC50 is commonly meant the concentration that gives 50% inhibition.

Consider eight compounds from patent US6765011B2, “7-heterocyclyl quinoline and thieno[2,3-b]pyridine derivatives useful as antagonists of gonadotropin releasing hormone” (Ortho-McNeil Pharmaceutical, Inc., priority 2000, dated 2004).

Test [1] has as its target T1, membrane-bound GnRH receptor (Rattus norvegicus, UniProt P30969).
T1 construct: from tissue; host or cells: rat pituitary homogenate (female and male, equal mixture)
T1 sequence (P30969 1-327): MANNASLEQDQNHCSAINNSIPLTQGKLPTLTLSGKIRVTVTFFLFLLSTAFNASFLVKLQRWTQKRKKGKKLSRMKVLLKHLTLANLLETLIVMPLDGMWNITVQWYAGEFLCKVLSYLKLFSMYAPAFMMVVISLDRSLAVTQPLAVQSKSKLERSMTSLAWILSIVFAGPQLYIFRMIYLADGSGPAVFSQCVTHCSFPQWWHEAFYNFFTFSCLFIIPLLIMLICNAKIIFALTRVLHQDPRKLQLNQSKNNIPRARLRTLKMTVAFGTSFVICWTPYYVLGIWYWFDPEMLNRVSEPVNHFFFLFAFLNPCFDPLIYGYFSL
As to the kind of experiment: GnRH Receptor Binding Assay ([125I]-histrelin competition, rat pituitary homogenate). Conditions: [125I]-histrelin displacement, female and male rat pituitary homogenate; values without parentheses = IC50; read-out: Binding, IC50 (B % @ 30 μM). The text has this:
GnRH Receptor Binding Assay
A homogenate prepared from an equal mixture of female and male rat pituitaries was used as the source of the membrane-bound GnRH receptor. The receptor was allowed to interact in solution with [^125I]-histrelin alone or in combination with a competitive ligand (the compound being tested). The bound radiolabeled ligand was separated from the free (unbound) radiolabeled ligand by filtration through glass filter mats using a 96-well plate harvesting system (Tomtec Mach II 96). In the absence of a competitive ligand, a maximum amount of radiolabeled ligand is bound to the receptor and trapped by the glass filter mats. […] The amount of receptor-bound [^125I]-histrelin on the filter mat was determined using a Wallac Betaplate™ Liquid Scintillation Counter. Binding was determined as follows:
B0 maximum concentration of compound
Average NSB: (NSB1+NSB2)/2
Corrected B0: Average B0−Average NSB
% inhibition of Corrected B0 (or maximum response) was calculated as follows:
% Inhibition=100−[((Actual counts per minute−Average NSB)/Corrected B0)*100]

The test system of test [2] is rat anterior pituitary cells. Nature of the test: Primary Pituitary Cell Culture Assay (luteinizing hormone in media after 1 nM GnRH). Conditions: inhibition of luteinizing hormone release, male rat primary pituitary cells. It is filed as cell-based. On the procedure: Primary Pituitary Cell Culture Assay
Male rats (between immature and adult) were sacrificed and the anterior pituitaries were collected from them. The pituitaries were dissociated and the cells were plated at a concentration of 0.33×10^6 cells/well on day 1. On day 3 the media on the cells was flushed and replaced with fresh media. The test compound was then added to the plated cells at a concentration ranging from 1 nM to 1000 nM. The plates were incubated at 37° C. at 5% CO2 for 2 days. On Day 5 the media was flushed again and replaced with fresh media. To the plates were then added test compound and 1 nM GnRH. The cells were incubated for 4 hours, the media was collected by centrifuging the plates at 1200 rpm Sorvall RT7 for 10 minutes, 900 μL of supernatant was pipetted from each well and dispensed to a 96 well plate. The deep well plates were covered and stored at […] for a day. The plates are then evaluated by ELISA ([…]) to determine the concentration of lutenizing hormone in the media. The assay was repeated at varying concentrations of the test compounds to determine IC50 values. The IC50 value is defined as the concentration of test compound at which 50% inhibition was achieved.

For test [3], the target named is T2, GnRHR (Hek 293 cells with the GnRHR gene) (Homo sapiens, UniProt P30968).
T2 construct: expressed in transfected cells; host or cells: HEK 293 cells carrying the GnRHR gene, transfected with an hCG promoter-luciferase reporter
T2 sequence (P30968 1-328): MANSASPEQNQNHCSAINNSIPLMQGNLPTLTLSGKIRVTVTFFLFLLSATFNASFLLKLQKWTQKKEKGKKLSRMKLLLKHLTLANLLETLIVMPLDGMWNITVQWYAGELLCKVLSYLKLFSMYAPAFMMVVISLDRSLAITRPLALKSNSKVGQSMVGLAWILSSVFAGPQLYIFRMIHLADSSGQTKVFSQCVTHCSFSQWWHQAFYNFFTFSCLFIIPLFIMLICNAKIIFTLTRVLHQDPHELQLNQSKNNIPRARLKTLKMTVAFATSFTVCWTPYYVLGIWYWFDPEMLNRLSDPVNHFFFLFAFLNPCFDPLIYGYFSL
As to the kind of experiment: LUCIFERASE Assay for GnRH (hCG promoter luciferase reporter). The test is classed as cell-based. The note with it: antagonist format, against 0.6 nM Histrelin. On the procedure: LUCIFERASE Assay for GnRH
Hek 293 cells with the GnRHR gene were transfected with the hCG promoter and the luciferase reporter system. On day 1, the cells were plated at a density of 80,000 cells per well on a Poly-D-lysine pre-coated 96 well plate. The plates were incubated at 37° C. for 24 hours. On day 2, the spent media was decanted and replaced with fresh media. Test compounds, standard and controls were added to individual wells. All the dilutions were done in 7.5% DMSO/(αMEM media. The assay was run in both agonist and antagonist format. For the antagonist format, the assay measurements were run against a standard of 0.6 nM Histrelin. On day 3, the levels of luciferase production were measured in a chemiluminescence assay using Enhanced Luciferase Assay Kit. The results were expressed as % Inhibition using the following formula: […]
RLU Relative Light Units, a measure of chemiluminescence
Agonist [RLU value(test compound)−(Background/0.6 nM Histrelin)−Background]*100
Antagonist (1−[(RLU value−(Background/0.6 nM Histrelin)−Background)*100])
The calculated percentages were plotted on a graph using Graph Pad Prizm and the IC50/EC50 values determined.
In general terms: Reporter assays use an easily measured gene product as a stand-in for the process of interest.

Structures can show the parent of a compound that is named as a salt.

`CCOc1nnc2c3cc(CN(C)Cc4ccccc4)c(-c4cc5ccccc5o4)cc3n(Cc3c(F)cccc3F)cc1-2` [Compound 6, 7-(Benzofuran-2-yl)-3-ethoxy-5-[(2,6-difluorophenyl)methyl]-8-[[methyl(phenylmethyl)amino]methyl]-5H-pyrazolo[4,3-c]quinoline HCl]: in test [1], the half-maximal inhibitory concentration (IC50) stood at 5 µM.
In the case of `CN(Cc1ccccc1)Cc1cc2c3n[nH]c(=O)c-3cn(Cc3c(F)cccc3F)c2cc1Br` [Compound 3, 2,5-Dihydro-7-bromo-8-[[methyl(phenylmethyl)amino]methyl]-5-[(2,6-difluorophenyl)methyl]-3H-pyrazolo[4,3-c]quinolin-3-one], in test [1], the IC50 was 16 µM.
Same read-out and setting: the result for `CN(Cc1ccccc1)Cc1cc2c3n[nH]c(=O)c-3cn(Cc3c(F)cccc3F)c2cc1-c1cc2ccccc2o1` [Compound 4, 2,5-Dihydro-7-(benzofuran-2-yl)-8-[[methyl(phenylmethyl)amino]methyl]-5-[(2,6-difluorophenyl)methyl]-3H-pyrazolo[4,3-c]quinolin-3-one] reads 1 µM.
The same measure, in the same setting: with `CN(Cc1ccccc1)Cc1cc2c3nnc(OCc4ccccc4)c-3cn(Cc3c(F)cccc3F)c2cc1-c1cc2ccccc2o1` [Compound 5, 7-(Benzofuran-2-yl)-3-[(phenylmethyl)oxy]-5-[(2,6-difluorophenyl)methyl]-8-[[methyl(phenylmethyl)amino]methyl]-5H-pyrazolo[4,3-c]quinoline] the figure was 5 µM.
Consider `COc1ccc(-c2sc3c(c2CN(C)Cc2ccccc2)c(=O)c(C(=O)NN)cn3Cc2ccccc2OC)cc1` [Compound 7, 4,7-Dihydro-2-(4-methoxyphenyl)-7-[(2-methoxyphenyl)methyl]-3-[[methyl(phenylmethyl)amino]methyl]-4-oxo-thieno[2,3-b]pyridine-5-carboxylic Acid, Hydrazide bis-Hydrochloride], for which the IC50 was 1.48 µM in test [2] and 1.6 µM in test [1].
`CCOC(=O)c1cn(Cc2c(F)cccc2F)c2cc(-c3cc4ccccc4o3)c(CN(C)Cc3ccccc3)cc2c1=O` [Compound 2, 6-(N-Benzyl-N-methylaminomethyl)-7-(benzofuran-2-yl)-1-(2,6-difluorobenzyl)-1,4-dihydro-4-oxoquinoline-3-carboxylic Acid Ethylester]: the IC50 in test [2] is 2.43 µM; in test [3] it was 3.26 µM.
For the compound `CCOC(=O)c1cn(Cc2c(F)cccc2F)c2cc(-c3ccsc3)c(CN(C)Cc3ccccc3)cc2c1=O` [Compound 1, 6-(N-Benzyl-N-methylaminomethyl)-7-(thien-3-yl)-1-(2,6-difluorobenzyl)-1,4-dihydro-4-oxoquinoline-3-carboxylic Acid Ethyl Ester], the values for the IC50 in test [1] and in test [3] were 32 µM and 10 µM, respectively.
As to `COc1ccc(-c2sc3c(c4n[nH]c(=O)c-4cn3Cc3ccccc3OC)c2CN(C)Cc2ccccc2)cc1` [Compound 8, 2,5-Dihydro-7-(4-methoxyphenyl)-5-[(2-methoxyphenyl)methyl]-8-[[methyl(phenylmethyl)amino]methyl]-3H-pyrazolo[3,4-d]thieno[2,3-b]pyridin-3-one], the IC50 in test [1] turned out to be 30 µM.
